Assay [1] has as its system native ACBP/DBI protein (mouse liver extracts). As to the kind of experiment: Pull down / immunoprecipitation of native ACBP/DBI from liver extracts. Particulars: mouse liver protein extract (500 μg), peptide-coated beads, overnight 4 °C, immunoblot for ACBP. The format is binding. The protocol: The physical interaction between the native ACBP and GABAARγ2 peptides was examined by standard immunoprecipitation (IP) and immunoblotting protocols. In detail, liver protein extracts (500 μg) were immunoprecipitated on protein A/G-Sepharose beads (Merck Millipore, Burlington, MA, USA, #GE17-0618-01) coated with (1× 2× 4×) either GABAARγ2 wild type (WT) or mutated (F77I) eicosapeptide (Biosynth ltd) or its negative control (PBS). Each IP reaction was incubated overnight (4 °C) in a rotation chamber followed by three consecutive rounds of PBS washing the next day. Each washing round included a PBS resuspension of the pellet and a re-centrifugation (12,000 × g, 4 °C). Finally, beads were resuspended in 20 μL of NUPAGE 4× buffer (Life Technologies, CA, USA, #NP0008), heated at 100 °C (10 min), followed by standard immunoblotting for the ACBP protein (Abcam #ab231910).
Fig. 5 Biophysical and biochemical detection of a direct interaction between ACBP/DBI and the GABAARγ2-derived eicosapeptide. A Schematic representation of the GABAAR and the GABAARγ2-derived eicosapeptides. B Surface plasmon resonance kinetics of ACBP-GABAARγ2-derived eicosapeptide (WT and F77I) interactions. Representative ACBP immunoblot (C) from control- or GABAARγ2-immunoprecipitated samples. Anti-GABAARγ2 immunoprecipitation (IP) assay was employed in order to validate the GABAARγ2 WT peptide interaction with native ACBP (in murine hepatic protein extracts), and quantification (D). […] For statistical analysis p value (indicating statistical comparisons with the control condition) was calculated by Mann–Whitney U-test. E Anti-GABAARγ2 IP assay to address the physical interaction between GABAARγ2 peptides and murine hepatic ACBP protein. Interaction was validated using an increasing gradient of biotinylated WT/F77I peptides that were bound on the surface of streptavidin beads as part of the IP assay. […]

Assay [2] concerns GFP-LC3-expressing hepatocytes. As to the kind of experiment: Hepatocyte autophagy activation (GFP-LC3 dots). The assay is classed as cell-based. The note with it: GFP-LC3 mouse hepatocytes, peptide 10 µg/mL, with leupeptin. The protocol:
[…] Leupeptin (100 μM) was added 4 h before fixation. Cells were stained with Hoechst 33342 solution (Thermo Scientific™, #62249, 1 µg/mL) and fixed with 4% paraformaldehyde (PFA) solution. Both blue (Hoechst-derived) and green (GFP-LC3-derived) fluorescence were imaged using a Zeiss LSM 710 confocal microscope. Images were analyzed using R software.
Hepatocytes were isolated from 4 transgenic mice expressing microtubule- associated proteins 1A/1B light chain 3B (hereafter referred to as LC3) fused to green fluorescent protein (GFP) (resulting fusion protein: LC3-GFP) under a ubiquitous promoter. Such oligo- or monocellular hepatocyte suspensions were cultured in the continuous presence of leupeptin at 37°C in the absence (A) or presence (B) of the GABAARγ2- EP- WT […]
Cells were counterstained with Hoechst
33342 and representative fluorescence images are shown (bar size: 10 µm). The number of LC3-GFP+ dots per cells (defined as an area of interest around the 1 or 2 Hoechst 33342- positive nuclei per cell) were determined by image analysis and plotted in C .
Results are shown as means ± standards of the mean, and statistics were calculated with […]

Assay [3] concerns C57BL/6 mice. As to the kind of experiment: Food intake after intravenous injection. The assay is classed as in vivo, mouse. The note with it: i.v., RecACBP/DBI 0.5 mg/kg + peptide 5× molar excess (pre-incubated 16 h, 4 °C), cumulative food intake 30 min. The protocol: Prior to experimentation, mice were subjected to 24 h starvation followed by individual housing and acclimatization in individual cages (2 h). Subsequently, mice were intravenously (i.v.) injected with recombinant ACBP/DBI protein (RecACBP/DBI) (total volume of 200 μL, 0.5 mg/kg body weight), either alone or in combination with GABAARγ2 peptides (5× molar excess). Cumulative food intake was then analyzed as previously described. Prior to i.v. injections, the RecACBP mixes were pre-incubated (16 h, 4 °C) with GABAARγ2 peptides.

Assay [4] relates to C57BL/6 mice. Nature of the assay: Concanavalin A-induced acute liver injury. The format is in vivo, mouse. The note with it: C57BL/6 male mice, peptide 5 mg/kg i.v. 90 min before concanavalin A 12 mg/kg i.v. The protocol:
GABAARγ2 peptides (5 mg/kg, i.v., dissolved in DMSO) were injected in 12-week-old C57BL/6 male mice 90 min before the injection of 12 mg/kg Concanavalin A (ConA, i.v., Sigma Aldrich, # C5275).
Fig. 7 In vivo inhibition of ACBP/DBI function by the GABAARγ2-derived eicosapeptide. A, B Appetite stimulation by ACBP/DBI. RecACBP/DBI alone or combined with GABAARγ2-derived eicosapeptides (EP) (WT or F77I) was administered in vivo by intravenous (i.v.) injection and individual cumulative food intake was measured after 30 min. GABAARγ2 peptides are represented as blue stars, while murine RecACBP/DBI is represented as red circles (A). […] C, D Immunoblots and densitometric quantification of LC3 lipidation in liver tissues from mice treated with GABAARγ2-derived eicosapeptides (EP) WT with or without the autophagy flux inhibitor leupeptin (n = 5 mice per group). p values were calculated by unpaired one-tailed Student’s t-test. E–G Inhibition of concanavalin A hepatotoxicity. GABAARγ2 WT peptide (or negative vehicle) was i.v. injected to C57BL/6 male mice followed by concanavalin A (or negative vehicle) administration 1.5 h later (E). Alanine transaminase (ALT) (F) and aspartate transaminase (AST) (G) activity in plasma was analyzed by means of a colorimetric assay (n = 7–9 mice per condition). p values were calculated by unpaired one-tailed Student’s t-test. ns: non-significant. Unt: Untreated.

The mark [5] stands for this setting: listed as GABAARγ2-derived eicosapeptide.

“Also recorded” adds a separate entry of the source.

With INMEYTIDIFFAQTWYDRRL [GABAARγ2-EP-WT], the “pull down of endogenous/native ACBP/DBI, in words” value was “efficiently interacts with native and recombinant ACBP/DBI; also recorded: able to interact with ACBP/DBI” in assay [1]; “validated the interaction” in assay [1] (setting [5]). For the same sequence, the “capacity to enhance autophagic flux” value in assay [2] is “enhance autophagic flux”. Besides, the “number of LC3-GFP dots per cell” value in assay [2] (confocal microscopy) was “increased the number of LC3-GFP dots”. Moreover, the “effect on RecACBP/DBI-induced hyperphagy” value in assay [3] (n = 4 to 9) is recorded as “abolished; also recorded: efficiently blocked”; in assay [3] (n = 4 to 9, listed as GABAARγ2-derived eicosapeptide) it was “blocked appetite stimulation by recombinant ACBP/DBI in vivo”. Besides, the “protection against concanavalin A hepatotoxicity, in words” value was “attenuate acute hepatotoxicity induced by concanavalin A” in assay [4] and “protected mice against the hepatotoxin concanavalin A” in assay [4] (setting [5]). Besides, the “plasma alanine aminotransferase (ALT) after concanavalin A” value in assay [4] (n = 7–9) is recorded as “significantly blunted the surge”. In addition, in assay [4] (n = 7–9), the “plasma aspartate aminotransferase (AST) after concanavalin A” value is listed as “significantly blunted the surge”.

These data come from PMC10998878, “Inhibition of acyl-CoA binding protein (ACBP) by means of a GABAARγ2-derived peptide” (Cell Death & Disease, 2024).
